# In patent publication US11389497B2, “Pharmaceutical composition for treating cancer” (Institute of Advance Sciences, Inc., priority 2019, dated 2022):
# Where two headings read alike, the source gives them in different places.
# Legend:
# ST88-14 cells [1] = test: Real-time quantitative PCR of tumorigenic genes in ST88-14 cells; format: cell-based, human; details: 48 h, normalized by GAPDH
# Method: Effect of OSHP-1 on the expression of tumorigenic genes. To ascertain whether OSHP-1 decreased the proliferation of ST 88-14 cells, by decreasing the expression of tumorigenic genes, total RNA was isolated from the ST88-14 cells as well as normal Human Schwann cells treated with varying concentrations of OSHP-1 (for 48 h) mentioned above. The RNA was reverse transcribed to cDNA and subjected to quantitative PCR using reverse and forward primers of FAX2, FOXN4, IGF2 TLXI genes (Lee et 2014), and was normalized by the expression of GAPDH (FIG. 5A).
# ST88-14 cells [2] = test: Soft Agar colony formation assay (anchorage independent growth); format: cell-based, human; details: colonies counted manually
# Source text: FIG. 7A illustrates a report on effect of OSHP-1 on anchorage independent growth or metastasis, in accordance with an exemplary embodiment of the present disclosure: To determine whether OSHP-1 and its individual components can block the anchorage independent growth of ST88-14 cells, and Normal Human Schwann Cells, by subjecting the cells to Soft Agar colony formation assays the absence and presence of (A) OSHP-1.
# FIG. 7B illustrates a report on AA, RA, CA and mixture of three, and the colonies were counted manually, in accordance with an exemplary embodiment of the present disclosure.
# (§1) Effect of OSHP-1 on anchorage independent growth or metastasis. To determine whether OSHP-1 and its individual components can block the anchorage independent growth of ST-8814 cells, and Normal Human Schwann by subjecting the cells to Soft Agar colony formation assays in the absence and presence of OSHP-1, AA, RA, CA and mixture of three, and the colonies were counted manual. […] Additionally, we also tested whether OSHP-1 and AA, RA, and CA affect the invasiveness of human metastatic melanoma.
# ST88-14 cells [3] = test: Scratch assay in ST88-14 cells; format: cell-based, human
# Source text: FIG. 7C illustrates a report on a scratch assay protocol performed using ST88-14 cells in the absence or presence of OSHP-1, AA, RA, CA, in accordance with an exemplary embodiment of the present disclosure.
# as §1
# [4] = system: human metastatic melanoma; test: Scratch assay in human metastatic melanoma; format: cell-based
# [5] = system: lysine acetyltransferase 7 (KAT 7); test: Immunoblot of nuclear fraction for histone acetyl transferases; format: cell-based, human; details: nuclear extract of ST88-14 cells, OSHP-1 50-300 ng/ml, 48 h
# HDAC2 = test: Immunoblot of nuclear fraction for NuRD components; format: cell-based, human; details: nuclear extract of ST88-14 cells, OSHP-1 50-300 ng/ml, 48 h
# Source text: CBP, KAT2A, KAT7 acetyl transferases and CHD4, MTA2, MBD2/3, HDAC2, GATA 2 (NuRD) components and b-actin antibodies.
# ST88-14 cells [6] = test: MTS cell viability / proliferation assay; format: cell-based, human; details: OSHP-1 50-300 ng/ml, 0-72 h
# Method: FIG. 4 illustrates a report on cell Viability Assays using the MTS Assay Kit (Colorimetric) (ab 197010) Cell proliferation, in accordance with an exemplary embodiment of the present disclosure. As shown, viability and cytotoxicity was assessed on cells. Cells were treated with the appropriate concentrations of OSHP-1 for 24, 48 and 72 h.
# Effect of OSHP-1 on Cell proliferation: We performed MTS assays using cells and treated with increasing concentrations of OSHP-1 (50-300 ng/ml) for 0-72 h.
compound,measurement,setting,value
O=C(/C=C/c1ccc(O)c(O)c1)O[C@H](Cc1ccc(O)c(O)c1)C(=O)O [rosmarinic acid],FAX2 (PAX2) expression,ST88-14 cells [1],down-regulated
same,IGF2 expression,ST88-14 cells [1],down-regulated
same,TLXI (TLX2) expression,ST88-14 cells [1],down-regulated
same,anchorage independent growth,ST88-14 cells [2],responsible for the blocking of anchorage independent growth
same,invasion and metastasis in scratch assay,ST88-14 cells [3],decreased metastasis
same,invasion and metastasis in scratch assay,ST88-14 cells [3]; listed as RA,"responsible for the blocking of anchorage independent growth, invasion and metastasis of MPNSTs"
same,migration of cells in scratch assay,[4],the one contributing to this property
O=C1O[C@H]([C@@H](O)CO)C(O)=C1O [ascorbic acid],FAX2 (PAX2) expression,ST88-14 cells [1],down-regulated
same,IGF2 expression,ST88-14 cells [1],down-regulated
same,TLXI (TLX2) expression,ST88-14 cells [1],down-regulated
same,lysine acetyl transferase KAT 7 activity / levels,[5],decreased
same,HDAC2 activity / levels,HDAC2,increased
caffeoylquinic acid,FAX2 (PAX2) expression,ST88-14 cells [1],down-regulated
same,FOXN4 expression,ST88-14 cells [1],down-regulated
same,IGF2 expression,ST88-14 cells [1],down-regulated
same,lysine acetyl transferase KAT 7 activity / levels,[5],decreases
"CN1c2c(nc(N)[nH]c2=O)NCC1CNc1ccc(C(=O)N[C@@H](CCC(=O)O)C(=O)O)cc1 (some centres unmarked) [MTHF, 5-methyl tetra hydro folate]",viability and proliferation of ST88-14 cells,ST88-14 cells [6],increases the cell proliferation
